Data: ChEMBL document CHEMBL1697781, “Assessment of the health effects of chemicals in humans: II. Construction of an adverse effects database for QSAR modeling” (Curr Drug Discov Technol, 2004)

tested on: Hepatotoxicity; experiment: FDA HLAED, liver enzyme composite activity; conditions: human

| SMILES | Composite Activity - Active | Composite Activity - Marginal |
| --- | --- | --- |
| CC(=O)O.C[C@H]1C[C@@H]2[C@H]([C@@H](O)C[C@@]3(C)[C@H]2CC[C@]3(O)C(=O)CO)[C@@]2(C)C=CC(=O)C=C12 | 0 | 0 |
| FC(F)OC(F)(F)C(F)Cl (stereo not given) | 0 | 0 |
| N[C@@H](Cc1ccc(N(CCCl)CCCl)cc1)C(=O)O | 0 | 0 |
| NC12CC3CC(CC(C3)C1)C2 [AMANTADINE] | 0 | 0 |
| NCCCCCC(=O)O [AMINOCAPROIC ACID] | 0 | 0 |
| CN(C)CCC=C1c2ccccc2CCc2ccccc21 [AMITRIPTYLINE] | 0 | 0 |
| C[C@@H]1[C@H](O)[C@@H](C)/C=C/C=C/C=C/C=C/C=C/C=C/C=C/[C@H](O[C@@H]2O[C@H](C)[C@@H](O)[C@H](N)[C@@H]2O)C[C@@H]2O[C@](O)(C[C@@H](O)C[C@@H](O)[C@H](O)CC[C@@H](O)C[C@@H](O)CC(=O)O[C@H]1C)C[C@H](O)[C@H]2C(=O)O [AMPHOTERICIN B] | 0 | 0 |
| CC(=O)Oc1ccccc1C(=O)O [ASPIRIN] | 0 | 0 |
| CN1[C@@H]2CC[C@H]1C[C@@H](OC(c1ccccc1)c1ccccc1)C2 [BENZTROPINE] | 0 | 0 |
| CC(=O)OCC(=O)[C@@]1(O)[C@@H](C)C[C@H]2[C@@H]3CCC4=CC(=O)C=C[C@]4(C)[C@@]3(F)[C@@H](O)C[C@@]21C [BETAMETHASONE ACETATE] | 0 | 0 |
| CC(=O)OCC(=O)[C@@]1(OC(=O)C(C)C)[C@@H](C)C[C@H]2[C@@H]3CCC4=CC(=O)C=C[C@]4(C)[C@@]3(F)[C@@H](O)C[C@@]21C [BETAMETHASONE ACIBUTATE] | 0 | 0 |
| C[C@H]1C[C@H]2[C@@H]3CCC4=CC(=O)C=C[C@]4(C)[C@@]3(F)[C@@H](O)C[C@]2(C)[C@@]1(OC(=O)c1ccccc1)C(=O)CO [BETAMETHASONE BENZOATE] | 0 | 0 |
| CCCC(=O)O[C@]1(C(=O)COC(=O)CC)[C@@H](C)C[C@H]2[C@@H]3CCC4=CC(=O)C=C[C@]4(C)[C@@]3(F)[C@@H](O)C[C@@]21C [BETAMETHASONE BUTYRATE PROPIONATE] | 0 | 0 |
| CCC(=O)OCC(=O)[C@@]1(OC(=O)CC)[C@@H](C)C[C@H]2[C@@H]3CCC4=CC(=O)C=C[C@]4(C)[C@@]3(F)[C@@H](O)C[C@@]21C [BETAMETHASONE DIPROPIONATE] | 0 | 0 |
| CCCCC(=O)O[C@]1(C(=O)CO)[C@@H](C)C[C@H]2[C@@H]3CCC4=CC(=O)C=C[C@]4(C)[C@@]3(F)[C@@H](O)C[C@@]21C [BETAMETHASONE VALERATE] | 0 | 0 |
| C[C@H]1C[C@H]2[C@@H]3CCC4=CC(=O)C=C[C@]4(C)[C@@]3(F)[C@@H](O)C[C@]2(C)[C@@]1(O)C(=O)CO [BETAMETHASONE] | 0 | 0 |
| CS(=O)(=O)OCCCCOS(C)(=O)=O [BUSULFAN] | 0 | 0 |
| Cc1nnc(SCC2=C(C(=O)O)N3C(=O)[C@@H](NC(=O)Cn4cnnn4)[C@H]3SC2)s1 [CEFAZOLIN] | 0 | 0 |
| CN1C(=O)CCS(=O)(=O)C1c1ccc(Cl)cc1 (stereo not given) [CHLORMEZANONE] | 0 | 0 |

same assay, conditions: human, Liver

| SMILES | Composite Activity - Active | Composite Activity - Marginal |
| --- | --- | --- |
| CC1=C(C(=O)O)N2C(=O)[C@@H](NC(=O)[C@H](N)c3ccccc3)[C@H]2SC1 [CEPHALEXIN ANHYDROUS] | 0 | 0 |
